Assay results from patent US9580379B2, “Xanthine oxidase inhibitors and methods of use” (Baylor College of Medicine, priority 2014, dated 2017).

Legend:
[1] = target: xanthine oxidase (Bos taurus, UniProt P80457); settings: for ability to inhibit XO at a concentration of 20 μM: compared with allopurinol (FIG. 2); for influence of pre-incubation with XO on XO inhibition: pre-incubation with XO 0 to 5 min at 25° C.; for time course of XO inhibition: XO (20 nM) added to xanthine (50 μM) and inhibitor (6.67 μM) to start the reaction; for XO activity after pre-incubation with inhibitor for 20 h: room temperature, DNSA 5 μM or 10 μM;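 for all read-outs here: xanthine oxidase activity read as the initial rate of uric acid production, with water serving as the negative control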
Sequence of xanthine oxidase (P80457 whole entry): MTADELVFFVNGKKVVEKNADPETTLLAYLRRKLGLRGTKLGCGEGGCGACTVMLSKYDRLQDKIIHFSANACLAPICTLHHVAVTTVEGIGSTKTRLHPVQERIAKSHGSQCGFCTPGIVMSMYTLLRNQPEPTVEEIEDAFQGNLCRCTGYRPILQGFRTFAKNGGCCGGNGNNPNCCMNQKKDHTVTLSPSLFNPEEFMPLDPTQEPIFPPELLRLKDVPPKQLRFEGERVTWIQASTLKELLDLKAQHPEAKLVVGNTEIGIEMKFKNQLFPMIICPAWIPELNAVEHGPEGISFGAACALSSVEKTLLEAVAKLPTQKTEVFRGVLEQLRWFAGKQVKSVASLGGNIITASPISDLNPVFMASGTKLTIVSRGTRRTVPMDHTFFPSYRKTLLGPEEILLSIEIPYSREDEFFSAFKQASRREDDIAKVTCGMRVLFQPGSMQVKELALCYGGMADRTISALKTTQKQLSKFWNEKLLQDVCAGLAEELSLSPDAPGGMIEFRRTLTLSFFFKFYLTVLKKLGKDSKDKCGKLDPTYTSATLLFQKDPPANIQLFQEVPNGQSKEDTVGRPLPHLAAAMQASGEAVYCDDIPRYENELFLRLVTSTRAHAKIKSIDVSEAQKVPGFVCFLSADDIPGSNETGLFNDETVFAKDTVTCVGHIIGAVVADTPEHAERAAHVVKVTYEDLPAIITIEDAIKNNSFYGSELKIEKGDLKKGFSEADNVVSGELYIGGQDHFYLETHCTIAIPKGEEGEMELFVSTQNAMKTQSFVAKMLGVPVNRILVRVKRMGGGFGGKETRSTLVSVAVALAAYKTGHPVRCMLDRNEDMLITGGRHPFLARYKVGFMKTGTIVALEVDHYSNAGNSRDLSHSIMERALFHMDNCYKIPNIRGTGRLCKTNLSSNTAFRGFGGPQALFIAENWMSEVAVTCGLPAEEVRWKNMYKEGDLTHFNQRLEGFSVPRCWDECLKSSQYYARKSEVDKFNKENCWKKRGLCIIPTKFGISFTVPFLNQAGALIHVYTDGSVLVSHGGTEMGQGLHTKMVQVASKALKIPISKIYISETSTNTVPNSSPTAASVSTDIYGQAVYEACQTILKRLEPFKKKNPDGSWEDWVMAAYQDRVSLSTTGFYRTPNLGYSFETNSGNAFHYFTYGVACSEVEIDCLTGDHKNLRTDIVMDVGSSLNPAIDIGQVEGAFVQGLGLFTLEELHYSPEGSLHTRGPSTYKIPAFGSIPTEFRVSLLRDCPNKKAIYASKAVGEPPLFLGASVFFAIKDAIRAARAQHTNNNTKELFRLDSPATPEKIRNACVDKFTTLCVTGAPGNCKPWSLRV

[2] = target: T1, XO (Bos taurus, UniProt P80457); assay: Conversion of DHNB to products by XO / reaction of XO and DHNB; format: biochemical, bovine; settings: for conversion of inhibitor by XO after 20 h: pre-incubation with XO for 20 h
T1 construct: Xanthine oxidase from bovine milk; purchased Sigma Chemical Co. (St. Louis, Mo.); host or cells: bovine milk
T1 sequence (P80457 whole entry): as above
Protocol: Negative electrospray ionization-mass spectrometry (ESI-MS) and tandem (MSMS) were applied to detect and confirm the reaction products of DHNB with XO. All mass spectrometric experiments were performed on an API 3200-Qtrap triple quadrupole mass spectrometer (Applied Biosystem/MDS SCIEX; Foster City, Calif.) equipped with a TurbolonSpray™ source. The main working parameters for mass spectrum were set as follows: ion-spray voltage, −4.5 kV; ion source temperature, 600° C.; gas 1, 40 psi; gas 2, 40 psi; curtain gas, 20 psi; collision gas, high.
After that, the enzymatic activity of XO was recovered.

[3] = DPPH scavenging assay; settings: 20 μM compound, 100 μM DPPH, compared with vitamin C
Protocol: DPPH scavenging assay—The abilities of the polyphenols described herein to scavenge the DPPH radical were measured optically by monitoring the decreases of their absorptions at […]. […] DPPH was used at a concentration of 100 μM. Their scavenging activities were compared with that of vitamin C.

[4] = Superoxide scavenging assay (xanthine-xanthine oxidase system, NBT reduction); settings: 20 μM
Protocol: Superoxide scavenging assay—Superoxide (O2^−•) scavenging activity was assayed in the xanthine-xanthine oxidase system and determined by the inhibition of the reduction of nitro blue tetrazolium (NBT) to form blue formazan which has an absorption at 560 nm. The final concentrations of reagents used in the assay are as follows: 16.8 mU xanthine oxidase, 25 μM xanthine, 50 μM NBT, and 0.1 M phosphate buffer (pH 8.5). […] The abilities of polyphenols to scavenge O2^−• were compared with that of GSH.

[5] = HOCl scavenging assay; settings: 20 μM, compared with vitamin C
Protocol: HOCl scavenging assay—HOCl was prepared immediately before use by adjusting the pH of a 1% (v/v) solution of NaOCl to pH 6.2 with 0.6 M sulfuric acid. The concentration was further determined spectrophotometrically at 235 nm using the molar extinction coefficient of 100 M^−1 cm^−1. 5-Thio-2-nitrobenzoic acid (TNB) was prepared by reducing 5,5′-dithio-bis(2-nitrobenzoic acid) (DTNB) with sodium borohydride in phosphate buffer. The final concentrations of reagents used in the assay are as follows: 25 μM HOCl, 70 μM TNB, 0 to 200 μM antioxidants, phosphate buffer, 50 mM, pH 6.6. The HOCl scavenging assay was based on the inhibition of TNB oxidation to DTNB induced by HOCl.

[6] = Peroxynitrite scavenging assay; settings: 25 μM ONOO−, pH 7.4 (FIG. 7C)
Protocol: Peroxynitrite scavenging assay—Peroxynitrite (ONOO—) was generated by mixing 5 mL acidic solution (0.6 M HCl) of H2O2 (0.7 M) and 5 mL of 0.6 M KNO2 in an ice bath for 1 second and the reaction was quenched with 5 mL of ice-cold 1.2 M NaOH. Residual H2O2 was removed using granular MnO2 prewashed with 1.2 M NaOH and the reaction mixture was then left overnight at −20° C. Concentrations of ONOO^− were determined before each experiment at 302 nm using a molar extinction coefficient of 1,670 M^−1 cm^−1. The final concentrations of reagents used in the assay are as follows: 25 μM ONOO^−, 10 μM DTPA, 5 μM DHR 123, 0.1 M phosphate buffer, pH 7.4. The ONOO^− scavenging assay was performed by monitoring the oxidation of dihydrorhodamine (DHR 123) by ONOO^− spectrophotometrically at 500 nm. […] Vitamin C was used as a positive control. The concentration dependent effects of these compounds on ONOO^− scavenging were also studied and compared with that of vitamins C and E (FIG. 10).

[7] = system: C57BL/6 mice
From the text: Each mouse was monitored for general health conditions on a daily basis for 28 days, including examination of mortality, body weights, and behavior of the mice.

[8] = system: allantoxanamide induced hyperuricemic mice; assay: Hypouricemic effect in allantoxanamide induced hyperuricemic mice; format: in vivo; settings: for serum urate levels: 100 mg/kg oral before allantoxanamide injection
Protocol: A hyperuricemia mouse model was used. Allantoxanamide, a potent uricase inhibitor, was used to induce hyperuricemia in mice in this study. […] The mice were subsequently intraperitoneally injected with allantoxanamide at 200 mg/kg in 0.5% CMC-Na in a volume of 0.1 ml/10 g mouse body weight just after the tested drug oral administration to increase the serum uric acid level. […] The negative control mice were administered PEG400 only followed by i.p. allantoxanamide. The normal group mice were administered PEG400 only followed by i.p. CMC-Na only. Food and water were withheld overnight prior to the study. Whole blood samples were collected from mice through orbital vein bleeding at the end of the study. The mice were anaesthetized with diethyl ether inside a chamber. The blood was allowed to clot for 1 h at room temperature and then centrifuged at 2350×g for 4 min to obtain the serum. The serum was kept on ice and assayed immediately. Serum uric acid was determined with the phosphotungstate method, as known to those of skill in the art.

[9] = system: mouse; settings: oral administration once; cited from earlier work

COc1ccc(CO)cc1OC [DMB-CH2OH, 3,4-dimethoxybenzyl alcohol, reference compound]
ability to inhibit XO at a concentration of 20 μM [1]: no effect on XO | influence of pre-incubation with XO on XO inhibition ([1]; then 50 μM xanthine): did not show any inhibitory effect

O=C(O)c1cc(O)c(O)c([N+](=O)[O-])c1 [3,4-dihydroxy-5-nitrobenzoic acid]
inhibitory effect on XO of the product of DHNB conversion ([2]; room temperature): no inhibitory effect on XO

O.O=Cc1cc(O)c(O)c(O)c1 [THB-CHO, 3,4,5-trihydroxybenzaldehyde hydrate]
DPPH scavenging effect [3]: as strong of a DPPH scavenging effect as vitamin C | scavenging effect on superoxide [4]: strong scavenging effects on superoxide | HOCl scavenging effect [5]: stronger HOCl scavenging effect than that of vitamin C | IC50 value, inhibition of XO activity ([1]; 20 nM XO, 50 μM xanthine, phosphate buffer pH 7.4, 25° C., initial rate of uric acid formation): too high to determine | ability to inhibit XO at a concentration of 20 μM [1]: had inhibitory effects on XO | influence of pre-incubation with XO on XO inhibition ([1]; then 50 μM xanthine): pre-incubation also affected the XO inhibition | scavenging effect on ONOO− [6]: strong scavenging effect on ONOO^−

O=[N+]([O-])c1cc(CO)cc(O)c1O [DHNB-CH2OH, reference compound]
ability to inhibit XO at a concentration of 20 μM [1]: no effect on XO | influence of pre-incubation with XO on XO inhibition ([1]; then 50 μM xanthine): did not show any inhibitory effect

Oc1ncnc2[nH]ncc12 [allopurinol]
DPPH scavenging effect [3]: no scavenging effect on DPPH | pups of surviving mice that died in two days ([7]; 500 mg/kg, total 19 pups): eight | mice died within 3 days ([7]; C57BL/6, mouse, in vivo): 5 | hair loss of pups of treated mice ([7]; mouse, in vivo): lost most of the back hair | serum urate level ([8]; same condition as DHNB (100 mg/kg oral before allantoxanamide)): significantly lowered the serum urate level close to the normal level | time course of XO inhibition [1]: time-dependent inhibition

O=Cc1ccc(O)c(O)c1 [DHB-CHO, 3,4-dihydroxybenzaldehyde]
DPPH scavenging effect [3]: as strong of a DPPH scavenging effect as vitamin C | HOCl scavenging effect [5]: weak scavenging effect on HOCl | concentration and pre-incubation time dependence of XO inhibition [1]: not concentration dependent but instead was pre-incubation time dependent | ability to inhibit XO at a concentration of 20 μM [1]: had inhibitory effects on XO | influence of pre-incubation with XO on XO inhibition ([1]; then 50 μM xanthine): pre-incubation also affected the XO inhibition | scavenging effect on ONOO− [6]: strong scavenging effect on ONOO^−

O=C(O)c1cc(O)c(O)c(O)c1 [gallic acid, reference compound]
ability to inhibit XO at a concentration of 20 μM [1]: no effect on XO | influence of pre-incubation with XO on XO inhibition ([1]; then 50 μM xanthine): did not show any inhibitory effect | scavenging effect on ONOO− [6]: strong scavenging effect on ONOO^−

O=Cc1cc([N+](=O)[O-])cc([N+](=O)[O-])c1O [DNSA, 3,5-dinitrosalicylaldehyde]
conversion of inhibitor by XO after 20 h [2]: not converted | influence of pre-incubation of DNSA with XO on XO activity ([1]; 20 nM XO and 20 μM DNSA pre-incubated 0-10 min, then 50 μM xanthine, steady-state rate): strongly inhibited XO activity | XO activity after pre-incubation with inhibitor for 20 h [1]: no XO activity at all

NC(=O)c1nc(=O)[nH]c(=O)[nH]1 [allantoxanamide]
serum urate level ([8]; 1 h after 200 mg/kg allantoxanamide i.p., normal mice 2 mg/dl): 5.4 mg/dL | serum urate level ([8]; 2 h after 200 mg/kg allantoxanamide i.p.): 9.5 mg/dL | serum urate level ([8]; 3 h after 200 mg/kg allantoxanamide i.p.): 13.3 mg/dL | serum urate level ([8]; 4 h after 200 mg/kg allantoxanamide i.p.): 16.4 mg/dL

O=C(O)c1ccc(O)c(O)c1 [DHB-COOH, 3,4-dihydroxybenzoic acid, reference compound]
ability to inhibit XO at a concentration of 20 μM [1]: no effect on XO | influence of pre-incubation with XO on XO inhibition ([1]; then 50 μM xanthine): did not show any inhibitory effect

O=C(O)/C=C/c1ccc(O)c(O)c1 [caffeic acid, reference compound]
scavenging effect on ONOO− [6]: strong scavenging effect on ONOO^−

O=Cc1cc(O)c(O)c([N+](=O)[O-])c1 [DHNB, 3,4-Dihydroxy-5-nitrobenzaldehyde]
DPPH scavenging effect [3]: as strong of a DPPH scavenging effect as vitamin C | lowest published lethal dose [9]: 312 mg/kg | hair loss of pups of treated mice ([7]; mouse, in vivo): not observed | histology analysis for the liver, kidney, and heart versus control mice ([7]; mouse, in vivo): did not show any difference | serum urate levels ([8]; in 2 hours): significantly lowered | serum urate levels ([8]; in 4 hours): just slightly higher than the normal level | HOCl scavenging effect [5]: moderate scavenging effect | duration of inhibition of XO activity ([2]; 30 μM DHNB with 15 mU/ml (30 nM) XO, phosphate buffer pH 7.4): up to 20 h | decay rate of DHNB with XO ([2]; 30 μM DHNB, 30 nM XO, phosphate buffer, pH dependent (higher pH faster), absorption at 327 nm): ~10^−10 mol/L/s | conversion of inhibitor by XO after 20 h [2]: converted to DHNB-COOH completely | stability without XO ([2]; without XO): very stable | IC50 [1]: 3 µM | pH dependence of XO inhibition [1]: neutral or slightly acidic solutions benefit the inhibition | ability to inhibit XO at a concentration of 20 μM [1]: had inhibitory effects on XO | time course of XO inhibition [1]: time-dependent inhibition | Dixon plot, steady-state kinetic study of XO inhibition ([1]; concentration of DHNB fixed, increasing xanthine, 1 min pre-incubation): initial rates did not change with increasing xanthine concentrations | influence of pre-incubation with XO on XO inhibition ([1]; then 50 μM xanthine): significantly increased the inhibition | XO activity after pre-incubation with inhibitor for 20 h [1]: XO activity was recovered | reversibility of XO inhibition ([1]; tested condition): irreversible XO inhibitor | scavenging effect on ONOO− [6]: strong scavenging effect on ONOO^−

O=Cc1cc(O)c(O)cc1[N+](=O)[O-] [DH6NB, 3,4-Dihydroxy-6-nitrobenzaldehyde]
DPPH scavenging effect [3]: as strong of a DPPH scavenging effect as vitamin C | HOCl scavenging effect [5]: weak scavenging effect on HOCl | IC50 [1]: 96 µM | ability to inhibit XO at a concentration of 20 μM [1]: had inhibitory effects on XO | influence of pre-incubation with XO on XO inhibition ([1]; then 50 μM xanthine): pre-incubation also affected the XO inhibition | scavenging effect on ONOO− [6]: strong scavenging effect on ONOO^−

COc1cc(C=O)ccc1O [Vanillin, reference compound]
ability to inhibit XO at a concentration of 20 μM [1]: no inhibition on XO activity | influence of pre-incubation with XO on XO inhibition ([1]; then 50 μM xanthine): did not show any inhibitory effect
